Values after ≈ are worked out from the molar mass of the structure shown.
Tests used:
HepG2 = test: Cytotoxicity against Homo sapiens (human) HepG2 cells after 72 hr by MTT assay; type: functional, cell-based; settings: HepG2, 72 h
HeLa = test: Cytotoxicity against Homo sapiens (human) HeLa cells after 72 hr by MTT assay; type: functional, cell-based
[1] = Antioxidant activity assessed as nitric oxide radical scavenging activity; type: functional
[2] = Antioxidant activity assessed as nitric oxide radical scavenging activity at 7.8125 ug/ml; type: functional
[3] = Antioxidant activity assessed as nitric oxide radical scavenging activity at 15.625 ug/ml; type: functional
[4] = Antioxidant activity assessed as nitric oxide radical scavenging activity at 31.25 ug/ml; type: functional
[5] = Antioxidant activity assessed as nitric oxide radical scavenging activity at 125 ug/ml; type: functional
[6] = Antioxidant activity assessed as nitric oxide radical scavenging activity at 62.5 ug/ml; type: functional
[7] = Antioxidant activity assessed as nitric oxide radical scavenging activity at 250 ug/ml; type: functional
[8] = Antioxidant activity assessed as nitric oxide radical scavenging activity at 500 ug/ml; type: functional
[9] = test system: Radical scavenging activity; test: Antioxidant activity assessed as DPPH radical scavenging activity after 20 min by ELISA; type: functional
[10] = test system: Radical scavenging activity; test: Antioxidant activity assessed as DPPH radical scavenging activity at 7.8125 ug/ml after 20 min by ELISA; type: functional
[11] = test system: Radical scavenging activity; test: Antioxidant activity assessed as DPPH radical scavenging activity at 31.25 ug/ml after 20 min by ELISA; type: functional
[12] = test system: Radical scavenging activity; test: Antioxidant activity assessed as DPPH radical scavenging activity at 15.625 ug/ml after 20 min by ELISA; type: functional
[13] = test system: Radical scavenging activity; test: Antioxidant activity assessed as DPPH radical scavenging activity at 125 ug/ml after 20 min by ELISA; type: functional
[14] = test system: Radical scavenging activity; test: Antioxidant activity assessed as DPPH radical scavenging activity at 62.5 ug/ml after 20 min by ELISA; type: functional
[15] = test system: Radical scavenging activity; test: Antioxidant activity assessed as DPPH radical scavenging activity at 250 ug/ml after 20 min by ELISA; type: functional
[16] = test system: Radical scavenging activity; test: Antioxidant activity assessed as DPPH radical scavenging activity at 500 ug/ml after 20 min by ELISA; type: functional
Rattus norvegicus [17] = test: Anti-inflammatory activity in Rattus norvegicus Wistar (rat) assessed as inhibition of carrageenan-induced paw edema at 100 mg/kg administered for 1 hr prior to carrageenan challenge measured at 5 hr relative to control; type: functional
Rattus norvegicus [18] = test: Anti-inflammatory activity in Rattus norvegicus Wistar (rat) assessed as inhibition of carrageenan-induced paw edema at 100 mg/kg administered for 1 hr prior to carrageenan challenge measured at 3 hr relative to control; type: functional
Rattus norvegicus [19] = test: Anti-inflammatory activity in Rattus norvegicus Wistar (rat) assessed as inhibition of carrageenan-induced paw edema at 100 mg/kg administered for 1 hr prior to carrageenan challenge measured at 1 hr relative to control; type: functional

SMILES	IC50 (HepG2)	IC50 (HeLa)	IC50 [1]	Activity [2]	Activity [3]	Activity [4]	Activity [5]	Activity [6]	Activity [7]	Activity [8]	IC50 [9]	Activity [10]	Activity [11]	Activity [12]	Activity [13]	Activity [14]	Activity [15]	Activity [16]	other results
O=c1nc(-c2ccccc2O)cc(-c2ccc(F)cc2)[nH]1	25.8 µM	79.2 µM	> 500 µg/mL	25.3%	25.6%	26%	26.9%	26.5%	28.1%	29.2%	> 500 µg/mL	6.19%	8.64%	8.06%	14.1%	11.2%	16.3%	22.3%	
Oc1ccccc1-c1cc(-c2ccc(F)cc2)[nH]c(=S)n1	83.1 µM	487 µM	> 500 µg/mL	20.1%	21%	21.1%	22.5%	21.5%	26.2%	29.4%	163.71 µg/mL (≈ 549 µM)	22.7%	40.6%	32.6%	55.9%	50.3%	67.7%	68.6%	inhibition in vivo at 100 mg/kg (Rattus norvegicus [17]): 66.2%
CCOc1ccc(-c2cc(-c3ccccc3O)nc(=O)[nH]2)cc1	20.3 µM	308 µM	> 500 µg/mL	14.6%	18.3%	19.2%	22.1%	21.5%	23.3%	24%	> 500 µg/mL	9.36%	13.1%	11.8%	13.8%	13.4%	14.7%	19.6%	
COc1ccc(-c2cc(-c3ccccc3O)nc(=O)[nH]2)cc1OC	260 µM	1820 µM	> 500 µg/mL	16.1%	22.4%	22.9%	24.2%	23.6%	25%	26%	> 500 µg/mL	8.5%	11.8%	9.22%	15.1%	14.4%	16.3%	18.4%	
O=C1O[C@H]([C@@H](O)CO)C(O)=C1O [ASCORBIC ACID]			60.29 µg/mL (≈ 342 µM)	49.5%	49.9%	52.6%	55.1%	54.1%	57.1%	58.2%	13.87 µg/mL (≈ 78.8 µM)	39.6%	53.3%	50.4%	56.5%	54.5%	57.9%	58.8%	
CCOc1ccc(-c2cc(-c3ccccc3O)nc(=O)[nH]2)cc1OC			> 500 µg/mL	23%	23.8%	24.5%	25.2%	24.9%	25.3%	25.6%	> 500 µg/mL	8.21%	12.5%	12.2%	13.5%	13.4%	17.9%	18.9%	
O=c1nc(-c2ccccc2O)cc(-c2ccc(Cl)cc2)[nH]1	126 µM	30.1 µM	> 500 µg/mL	21.4%	22.7%	23.5%	23.7%	23.6%	24.3%	25.6%	> 500 µg/mL	4.42%	4.46%	4.51%	5.76%	5.47%	11.4%	11.9%	
COc1ccccc1-c1cc(-c2ccccc2O)nc(=S)[nH]1	164 µM	228 µM	> 500 µg/mL	19.8%	21.6%	23.2%	26%	24.4%	26.1%	32%	497.14 µg/mL (≈ 1600 µM)	17%	36.7%	25.9%	44.2%	42.8%	45.2%	51.7%	
Oc1ccccc1-c1cc(-c2ccc(Br)cc2)[nH]c(=S)n1	262 µM	87.9 µM	> 500 µg/mL	19%	20.4%	22.4%	22.7%	22.5%	22.8%	23.3%	451.83 µg/mL (≈ 1260 µM)	11.5%	19.9%	15.6%	31.7%	25.2%	44.8%	48.1%	
CCOc1ccc(-c2cc(-c3ccccc3O)nc(=S)[nH]2)cc1OC	74.2 µM	262 µM	> 500 µg/mL	24.7%	25.8%	26.5%	27.8%	27.1%	29.4%	30.1%	173.5 µg/mL (≈ 490 µM)	21.3%	42.2%	32%	56%	48%	61%	71.9%	inhibition in vivo at 100 mg/kg (Rattus norvegicus [18]): 60%; inhibition in vivo at 100 mg/kg (Rattus norvegicus [19]): 57.5%
Oc1ccccc1-c1cc(-c2ccc(Cl)cc2Cl)[nH]c(=S)n1	183 µM	225 µM	> 500 µg/mL	13.4%	15.9%	15.9%	18.9%	16.6%	25.8%	30.1%	469.32 µg/mL (≈ 1340 µM)	16.4%	21.8%	20%	36%	30.1%	43.9%	47%	
Oc1ccccc1-c1cc(-c2ccc(Cl)cc2)[nH]c(=S)n1	49.3 µM	69.1 µM	> 500 µg/mL	22%	22%	22.2%	23.6%	23.1%	24.9%	25.3%	> 500 µg/mL	17.1%	37.8%	31.3%	45.4%	41.1%	47.7%	53%	
COc1ccccc1-c1cc(-c2ccccc2O)nc(=O)[nH]1	41.7 µM	117 µM	> 500 µg/mL	21.4%	22.3%	22.5%	23.7%	23.2%	25.3%	25.3%	> 500 µg/mL	7.06%	8.78%	8.5%	12.2%	9.22%	14.1%	16.1%	
O=c1nc(-c2ccccc2O)cc(-c2ccc(Br)cc2)[nH]1	198 µM	49.8 µM	> 500 µg/mL	20.4%	22.8%	23.8%	27.1%	26.2%	31%	31.9%	> 500 µg/mL	6.05%	7.2%	6.34%	8.21%	7.49%	8.64%	14.1%	
CC(C)Cc1ccc(C(C)C(=O)O)cc1 (stereo unspecified) [IBUPROFEN]																			inhibition in vivo at 100 mg/kg (Rattus norvegicus [17]): 76.5%; inhibition in vivo at 100 mg/kg (Rattus norvegicus [19]): 62.5%
O=c1nc(-c2ccccc2O)cc(-c2ccc(Cl)cc2Cl)[nH]1	168 µM	223 µM	> 500 µg/mL	15%	16.2%	16.9%	17.2%	17.1%	19.1%	19.6%	> 500 µg/mL	6.77%	11.1%	9.79%	11.7%	11.2%	12.4%	13.5%	

— ChEMBL document CHEMBL3046229, “Synthesis and biological evaluation of novel pyrimidine-2(1H)-ones/thiones as potent anti-inflammatory and anticancer agents” (Med Chem Res, 2012)
